Test results: patent publication US12402622B2, “Agricultural compositions and methods of use thereof” (Valent U.S.A. LLC, priority 2019, dated 2025)

Key:
volunteer corn = test: Control and lodging of volunteer corn (14 inches), spray chamber, sugar alcohol rate series, Example 4; format: in vivo; conditions: for lodging on addition of the sugar alcohol to S-3100: addition to S-3100, rate not given; for control of volunteer corn relative to S-3100 alone: sugar alcohol at 1700, 3400, 6800, 13600 and 27200 g/HA with S-3100
Description: (§1) 12 trials were conducted on the efficacy of S-3100 with or without mannitol or sorbitol at various application rates. Specifically, 12 plots of volunteer corn were grown to 14 inches in height. These plots were placed in a spray chamber for treatment. All compositions contained 1% v/v of Agridex® and 0.25% v/v of Induce®. Treatments and results can be found in Table 4, below.

crabgrass = test: Control of crabgrass (10 inches), spray chamber, sugar alcohol rate series, Example 3; format: in vivo, Digitaria sanguinalis; conditions: for control of crabgrass relative to S-3100 alone: 7 and 14 DAT, sugar alcohol at 1700, 3400, 6800, 13600 and 27200 g/HA with S-3100; for % control: S-3100 20 g/HA alone
Description: as §1, with “crabgrass” for “volunteer corn”, “10” for “14”, “3,” for “4,”

barnyard grass [1] = test: Control of barnyard grass (10 inches), spray chamber, sugar alcohol rate series, Example 5; format: in vivo, Echinochloa crus-galli; conditions: for control of barnyard grass relative to S-3100 alone: 7 and 14 DAT, sugar alcohol at 1700, 3400, 6800, 13600 and 27200 g/HA with S-3100; for % control: S-3100 20 g/HA alone
Description: as §1, with “barnyard grass” for “volunteer corn”, “10” for “14”, “5,” for “4,”

[2] = tested on: soybean petioles/leaves at V6 stage; test: Soybean petiole detached assay (translocation of S-3100), Example 6; format: in vivo; conditions: 21 DAT, S-3100 20 g/HA, mannitol or sorbitol 6800 g/HA, FIG. 1
Description: FIG. 1. Soybean plant leaf at V6 stage. A. untreated control. B. Treated with 20 g/HA S-3100. C. Treated with 6800 g/HA mannitol. D. Treated with 6800 g/HA sorbitol. E. Treated with 20 g/HA S-3100 and 6800 g/HA mannitol. F. Treated with 20 g/HA S-3100 and 6800 g/HA sorbitol.
4 plots of soybeans were grown to the V6 stage. Soybean petioles of plants at the V6 stage were treated in a petiole detached assay with 1 of the following 4 treatments: 1) untreated; 2) 20 g/HA S-3100; 3) 20 g/HA S-3100 and 6800 g/HA mannitol or 4) 20 g/HA S-3100 and 6800 g/HA sorbitol. Results were recorded 21 DAT. Results can be seen in FIG. 1.

barnyard grass [3] = test: Control of barnyard grass (6 inches), spray chamber, Example 1; format: in vivo, Echinochloa crus-galli; conditions: S-3100 20 g/HA, mannitol or sorbitol 6800 g/HA where combined
Description: 4 trials were conducted on the efficacy of ethyl [3-[2-chloro-4-fluoro-5-(1-methyl-6-trifluoromethyl-2,4-dioxo-1,2,3,4-tetrahydropyrimidin-3-yl)phenoxy]-2-pyridyloxy]acetate (“S-3100”) with or without mannitol or sorbitol. Specifically, 4 plots of barnyard grass were grown to 6 inches in height. These plots were placed in a spray chamber for treatment. All compositions contained 1% v/v of Agridex® and 0.25% v/v of Induce®. Treatments and results can be found in Table 1, below.

corn = test: Control of corn (12 inches), spray chamber, Example 2; format: in vivo; conditions: S-3100 20 g/HA, mannitol or sorbitol 6800 g/HA where combined
Description: as §1, with “4” for “12”, “sorbitol.” for “sorbitol at various application rates.”, “of” for “of volunteer”, “12” for “14”, “2,” for “4,”

Row | Structure (SMILES) | lodging on addition of the sugar alcohol to S-3100 (volunteer corn) | control of volunteer corn relative to S-3100 alone (volunteer corn) | control of crabgrass relative to S-3100 alone (crabgrass) | control of barnyard grass relative to S-3100 alone (barnyard grass [1]) | leaf symptoms (necrosis, yellowing, bronzing) as sign of translocation [2] | % control (volunteer corn; 7 DAT, S-3100 20 g/HA alone) | % lodging (volunteer corn; 8 DAT, S-3100 20 g/HA alone) | % control (crabgrass; 7 DAT) | % control (crabgrass; 14 DAT) | % control (barnyard grass [3]; 2 days after treatment, 1% v/v Agridex, 0.25% v/v Induce) | % control (barnyard grass [3]; 7 days after treatment) | % control (barnyard grass [3]; 13 days after treatment) | % control (barnyard grass [3]; 20 days after treatment) | % control (corn; 9 days after treatment, 1% v/v Agridex, 0.25% v/v Induce) | % control (corn; 13 days after treatment) | % control (corn; 22 days after treatment) | % control (barnyard grass [1]; 7 DAT) | % control (barnyard grass [1]; 14 DAT)
1 | OC[C@@H](O)[C@@H](O)[C@H](O)[C@@H](O)CO [sorbitol] | 100% | increase control of volunteer corn over S-3100 alone | increase control of crabgrass over S-3100 alone | increase control of barnyard grass over S-3100 alone |  |  |  |  |  |  |  |  |  |  |  |  |  | 
2 | OC[C@@H](O)[C@@H](O)[C@H](O)[C@H](O)CO [mannitol] | did not increase lodging | increase control of volunteer corn over S-3100 alone | increase control of crabgrass over S-3100 alone | increase control of barnyard grass over S-3100 alone | necrotic areas on the leaf tissue |  |  |  |  |  |  |  |  |  |  |  |  | 
3 | CCOC(=O)COc1ncccc1Oc1cc(-n2c(=O)cc(C(F)(F)F)n(C)c2=O)c(F)cc1Cl [S-3100, ethyl [3-[2-chloro-4-fluoro-5-(1-methyl-6-trifluoromethyl-2,4-dioxo-1,2,3,4-tetrahydropyrimidin-3-yl)phenoxy]-2-pyridyloxy]acetate] |  |  |  |  | leaf yellowing and vein necrosis especially on the main vascular tissue | 80.6% | 75% | 81.3% | 76.9% | 27.2% | 72.1% | 49.3% | 40% | 55.8% | 52.5% | 25% | 94.1% | 89.1%
